Results: patent publication US12234233B2, “Crystal form of phosphodiesterase inhibitor, preparation method therefor and use thereof” (TRANSTHERA SCIENCES (NANJING), INC., priority 2019, dated 2025)

Assay: Solubility in test solutions at different pHs and water
Assay type: physicochemical
Conditions: 37° C.
Description: Test substances: the compound of formula (I) was prepared by example 1 of the present invention, the crystal form I was prepared by example 2 of the present invention, the crystal form II was prepared by example 16 of the present invention, the crystal form III was prepared by example 20 of the present invention, the crystal form IV was prepared by example 24 of the present invention, the crystal form V was prepared by example 25 of the present invention, the crystal form VI was prepared by example 27 of the present invention, and the crystal form VII was prepared by example 31 of the present invention.
Preparation of Buffered Salt Solutions at Different pHs:
hydrochloric acid solution at pH 1.0:9 ml of hydrochloric acid was pipetted, and water was added for dilution to 1000 ml; the mixture was mixed homogeneously to obtain a hydrochloric acid solution at pH 1.03. Phosphate buffered solution at pH 4.5:1.56 g of sodium dihydrogen phosphate dihydrate was weighed, and 200 ml of water was added to obtain a phosphate buffered solution at pH 4.50. Phosphate buffered solution at pH 6.8:1.56 g of sodium dihydrogen phosphate dihydrate was weighed, and 200 ml of water was added; and the mixture was adjusted to pH 6.80 with 1 mol/L sodium hydroxide solution.
preparation of buffered solutions at different pHs (samples for determining solubility):
50 mg of each test substance was weighed, and 5 ml of the hydrochloric acid solution (pH 1.0) was added; and the mixture was mixed homogeneously with shaking. About 2.5 mg of each test substance was weighed, and 5 ml of the phosphate buffered solution (pH 4.5), 5 ml of the phosphate buffered solution (pH 6.8), and 5 ml of ultrapure water were added, respectively; the mixture was mixed homogeneously with shaking, and then placed in a 37° C. water bath shaker for shaking; the samples were collected at 24 hours and subjected to centrifugation; and the supernatant was taken and directly injected (if the solubility was high, the supernatant was diluted with a 0.1 mol/L hydrochloric acid solution to an appropriate multiple and then injected).
The solubility of the samples was quantitatively calculated according to the single-point external standard method.

- 24-hour solubility (Water): 0.11 mg/mL
- 24-hour solubility (pH 1.0 hydrochloric acid solution): 8.6 mg/mL
- 24-hour solubility (pH 4.5 phosphate buffered solution): 0.13 mg/mL
- 24-hour solubility (pH 6.8 phosphate buffered solution): 0.11 mg/mL
SMILES: CCc1cc2c(N3CCC(C)(OC)CC3)c(C#N)c(=O)[nH]c2cn1 [Crystal form I, 6-ethyl-4-(4-methoxy-4-methylpiperidin-1-yl)-2-oxo-1,2-dihydro-1,7-diazanaphthal ene-3-carbonitrile]
